Consider five compounds from US20240398819A1 (Rhode Island Hospital, priority 2023, published 2024).

Assay [1] has as its system fibrocytes from explanted human anterior cruciate ligament (ACL) specimens. In words: Effects of relaxin-2 antagonist / receptor antagonist on cultured ACL cells from patients with ACL reconstruction (RT-PCR). It is filed as cell-based. As to conditions: Folic Acid 10 μg/ml, NADH 100 μg/ml. As to the method: Measurements of expressions of MMP13, collagen 1A, collagen 3A, MMP3, and MMP1 in patient ACL tissues were conducted (FIG. 5). Biopsy tissues of the ACL from 20 patients (10 male and 10 female) who underwent surgeries for ACL reconstruction were harvested. The patients' ages ranged from 16 to 61 years, with equal numbers of males and females. The protocol for patient enrollment was approved by the IRB committee at our institution. […] After treatment, cells were lysed and analyzed for the expressions of type I collagen, type III collagen, MMP1, MMP3, and MMP13 using quantitative real-time polymerase chain reaction (RT-PCR). MMP13 expression (FIG. 5A); collagen 1A expression (FIG. 5B); collagen 3A expression (FIG. 5C); MMP3 expression (FIG. 5D); and MMP1 expression (FIG. 5E), all present the innovation. The protocol for patient enrollment was approved by the IRB committee at Rhode Island Hospital. GraphPad PRISM 8 software was used to perform all statistical analyses. Results were presented as mean+standard error of the mean (SEM) of different samples and considered significant when p<0.05. A t-test was used to compare any two groups, *p<0.05, **p<0.01, ***p<0.001 compared to their individual control group; ##p<0.01, compared to their individual relaxin-2 group.
Measurements of expressions of MMP13, collagen 1A, collagen 3A, MMP3, and MMP1 in patient ACL tissues were conducted (FIG. 5). Biopsy tissues of the ACL from 20 patients (10 male and 10 female) who underwent surgeries for ACL reconstruction were harvested. The patients' ages ranged from 16 to 61 years, with equal numbers of males and females. The protocol for patient enrollment was approved by the TRB committee at our institution.
After treatment, cells were lysed and analyzed for the expressions of type I collagen, type III collagen, MMP1, MMP3, and MMP13 using quantitative real-time polymerase chain reaction (RT-PCR). FIG. 5 provides expressions of MMP13, collagen 1A, collagen 3A, MMP3, and MMP1 in patient ACL tissues. (FIG. 5A) MMP13 expression; (FIG. 5B) collagen 1A expression; (FIG. 5C) collagen 3A expression; (FIG. 5D) MMP3 expression; (FIG. 5E) MMP1 expression. In FIG. 5, the protocol for patient enrollment was approved by the IRB committee at Rhode Island Hospital. GraphPad PRISM 8 software was used to perform all statistical analyses. Results were presented as mean+standard error of the mean (SEM) of different samples, and considered significant when p<0.05. A t-test was used to compare any two groups, *p<0.05, **p<0.01, ***p<0.001 compared to their individual control group; ##p<0.01, compared to their individual relaxin-2 group.

Assay [2] relates to patient ACL cells. Kind of assay: MMP gene expression (quantitative real-time RT-PCR) in cultured patient ACL cells treated with relaxin-2. It is filed as cell-based, human. Here is the method:
Methods: Biopsy tissues of the ACL in the knee were collected from 20 patients with ACL reconstruction (ages ranging from 16 years to 61 years old, 10 males and 10 females). The normal ACLs were obtained from the rejected human knee osteochondral grafts from the Musculoskeletal Transplant Foundation (MTF) or the donors from MedCure (ages ranging from 24 years to 84 years old, 4 male and 4 females) were used as control samples. Immunohistochemistry was performed to detect the expression of RXFP2 and apoptosis. The number of RXFP2 positive and apoptotic positive cells were counted from six different fields for each patient. ACL cells were cultured in vitro, then cells were treated with relaxin-2 at different concentrations. After treatment, cells were lysed and analyzed for the expressions of MMP1 and MMP13 using quantitative real-time polymerase chain reaction. The protocol for patient enrollment was approved by the IRB committee at Rhode Island Hospital. GraphPad PRISM 8 software was used to perform all statistical analyses. Results were presented as mean±standard error of the mean (SEM) of different samples. Data were examined by one-way analysis of variance (ANOVA) with Tukey post-hoc multiple comparison. An unpaired t-test was used to compare any two groups. A value of p<0.05 was considered to be statically significant.
Patient ACL tissues were minced and digested with 1.0 mg/mL of type II collagenase at 37° C. at 5% CO2 in 2 mL Dulbecco's modified Eagle medium F12 (DMEM/F12, Gibco) containing 1% antibiotic-antimycotic (Gibco) for 12 hours. ACL cells were then filtered through a […] nylon mesh filter and collected by centrifugation. ACL cells were plated at a density of 1×10^5 cells/cm^2 in DMEM/F12 media supplemented with 10% fetal bovine serum (FBS, Gibco) and 1% antibiotic-antimycotic in 20 cm petri dishes for passage one. The media was changed twice a week. […]
RNA was isolated using TRIzol reagent and RNeasy Mini Kit from cultured ACL cells. RNA concentrations and purity were evaluated using a Nanodrop spectrophotometer (Thermo Scientific, Wilmington, DE, USA). A total of 1 μg of sample RNA was reverse transcribed using the Quantitect RT Kit (Qiagen, cDNA was synthesized from RNA using the iScript cDNA synthesis kit (Bio-Rad). RNA concentrations and purity were evaluated using a Nanodrop spectrophotometer (Thermo Scientific, Wilmington, DE, USA). Exactly 500 ng DNA was used as the template for real-time PCR analyses. Quantitative PCR reactions were performed using SYBR Green Fast Mix in a Bio-Rad real-time PCR machine. All Taqman primer and probe mixes were from Thermo Fisher Scientific (Waltham, MA, USA). Changes in the gene expressions of MMP1 and MMP13 were measured, which were normalized to GAPDH.
(Quantitative PCR measures a nucleic acid by following its amplification.)

The subject of assay [3] is patient ACL cells. Kind of assay: cAMP level (ELISA) in patient ACL cells after relaxin-2 treatment. The format is cell-based, human. The conditions noted are these: male and female ACL cells. As to the method: The detection of cAMP in samples was conducted using Abcam's cAMP Complete in vitro competitive Enzyme-Linked Immunosorbent Assay (ELISA) kit. Patient samples were first thawed from −80° C. and added to a 10% protease inhibitor in RIPA buffer (Thermo Scientific) solution for cell lysis. Each sample was then pipetted up and down 10 times with a syringe every 10 minutes over the course of 30 minutes. Next, the samples were centrifuged at 14,000 RPM for 5 minutes. The supernatant was then extracted from the pellet and stored at −80° C.
Following cell lysis and supernatant extraction, the total protein concentration of the samples was determined using a BCA protein assay. Albumin standards were prepared with the RIPA buffer and protease inhibitor. […] Standards and samples were then loaded in a 96 well plate with BCA reagent and was read in a plate reader at 570 nm to determine overall protein concentrations in samples. The concentrations of cAMP were determined using Abcam's ELISA kit. […] Stop solutions were added, and the plate was read at 405 nm with correction between 570 nm and 590 nm to determine cAMP concentrations. cAMP concentrations in pmol/mg were calculated by dividing the cAMP concentrations in pmol/mL by the total protein concentrations from the BCA protein assay in mg/mL.
A general note: Cyclic AMP is a second messenger, typically raised through Gs and lowered through Gi signalling.

For assay [4] the following is noted: 48 hour intravenous infusion, 30 μg/kg/day; compared with placebo group; cited from earlier work.
In the next assay the test system is ACL cells. In words: Vitamin D effects on type I collagen and MMP13 gene expression in cultured ACL cells from patients (RT-PCR). As to conditions: 3 days; for Type I collagen expression: vitamin D 1, 10 and 100 nmol/L. The format is cell-based, human. As to the method:
Biopsy tissues of the ACL in the knee were collected from 20 patients with ACL reconstruction (ages ranging from 16 years to 61 years old, 10 males and 10 females). The ACL cells were cultured in vitro and treated with vitamin D at different concentrations for 3 days. Cells were then lysed and analyzed for expressions of type I collagen and MMP13 genes using quantitative real-time polymerase chain reaction. The protocol for patient enrollment was approved by the IRB committee at Rhode Island Hospital. GraphPad PRISM 8 software was used to perform all statistical analyses. Results were presented as mean±standard error of the mean (SEM) of different samples and considered significant when p<0.05. A t-test was used to compare any two groups. See Appendix II for data and further discussion.

Setting [5] is: male ACL cells, relaxin-2 treatments vs control groups.

With `Nc1nc2ncc(CNc3ccc(C(=O)N[C@@H](CCC(=O)O)C(=O)O)cc3)nc2c(=O)[nH]1` [Folic acid], in assay [1], the MMP-13 expression entry is reported as “significant decrease”, the “collagen 1A expression” value is “significant increases” and the “collagen 3A expression” value is “significant increases”.

As for `NC(=O)C1=CN([C@@H]2O[C@H](COP(=O)(O)OP(=O)(O)OC[C@H]3O[C@@H](n4cnc5c(N)ncnc54)[C@H](O)[C@@H]3O)[C@@H](O)[C@H]2O)C=CC1` [NADH, nicotinamide adenine dinucleotide hydride], in assay [1], the MMP-13 expression result is given as “significant decrease”, the “collagen 1A expression” value is given as “significant increases” and the “collagen 3A expression” value was “significant increases”.

Regarding relaxin-2, the MMP13 expression entry with patient ACL cells [2] (female ACL cells, 10 ng/mL of relaxin-2, vs untreated controls) is listed as “increased”. Besides, the MMP1 expression result in the assay on patient ACL cells [2] (female ACL cells, 100 ng/mL of relaxin-2, vs untreated controls) was “increased”; in the assay with patient ACL cells [2] (setting [5]), “didn't significant change”. Further, the MMP3 expression result in the assay with patient ACL cells [2] (setting [5]) was “didn't significant change”. Further, the cAMP levels result in the assay with patient ACL cells [3] was “couldn't change”.

On to serelaxin, for which, in assay [4], the 180-day mortality entry is reported as “improvement” and the short-term dyspnea scores entry was “improvement”.

Regarding vitamin D, the MMP13 gene expression entry in the assay on ACL cells (female cells, vitamin D 1 nmol/L) is given as “increased”; in the assay on ACL cells (female cells, vitamin D 10 nmol/L), “reduced”; with ACL cells (male cells, vitamin D 1 nmol/L) it was “increased”; in the assay on ACL cells (male cells, vitamin D 100 nmol/L), “reduced”. The “Type I collagen expression” value with ACL cells (female cells) is reported as “increased”; with ACL cells (male cells), “not observed”.
